Data as given in patent US20090036475A1, “Pyrazolyl-Pyrimidines as Potassium Channel Modulating Agents and Their Medical Use” (NEUROSEARCH A/S, priority 2006, published 2009).

Test system: not given
Test: not given
Conditions: not given

| Structure (SMILES) | melting point [°C] |
| --- | --- |
| Cc1cc(C)n(-c2ncc(C)c(Nc3ccc(Cl)cc3)n2)n1 [Compound B12, (4-Chloro-phenyl)-[2-(3,5-dimethyl-pyrazol-1-yl)-5-methyl-pyrimidin-4-yl]-amine] | 179.2 to 182.3 |
| Cc1cc(C)n(-c2nccc(Nc3cccc(C(F)(F)F)c3)n2)n1 [Compound B8, [2-(3,5-Dimethyl-pyrazol-1-yl)-pyrimidin-4-yl]-(3-trifluoromethyl-phenyl)-amine] | 98.5 to 99.6 |
| Cc1cc(C)n(-c2nccc(NC3CCCCC3)n2)n1 [Compound A5, Cyclohexyl-[2-(3,5-dimethyl-pyrazol-1-yl)-pyrimidin-4-yl]-amine] | 144.5 to 146.7 |
| Cc1cc(C)n(-c2ncc(Cl)c(NC3CCCCC3)n2)n1 [Compound A6, [5-Chloro-2-(3,5-dimethyl-pyrazol-1-yl)-pyrimidin-4-yl]-cyclohexyl-amine] | 90 to 99 |
| Cc1cc(NCc2ccccc2)nc(-n2nc(C)cc2C)n1 [Compound A1, Benzyl-[2-(3,5-dimethyl-pyrazol-1-yl)-6-methyl-pyrimidin-4-yl]-amine] | 135.9 to 137.3 |
| Cc1cc(C)n(-c2ncc(Br)c(Nc3ccc(Cl)cc3)n2)n1 [Compound B10, [5-Bromo-2-(3,5-dimethyl-pyrazol-1-yl)-pyrimidin-4-yl]-(4-chloro-phenyl)-amine] | 144.5 to 154 |
| Cc1cc(C)n(-c2nccc(Nc3ccc(Cl)cc3)n2)n1 [Compound B9, (4-Chloro-phenyl)-[2-(3,5-dimethyl-pyrazol-1-yl)-pyrimidin-4-yl]-amine] | 135.5 to 140 |

Other lines, results leading:

| melting point [°C] | Structure (SMILES) |
| --- | --- |
| 134.5 to 138.8 | Cc1cc(Nc2ccccc2)nc(-n2nc(C)cc2C)n1 [Compound B2, [2-(3,5-Dimethyl-pyrazol-1-yl)-6-methyl-pyrimidin-4-yl]-phenyl-amine] |
| 130.5 to 133.6 | Cc1cc(Nc2cccc(C(F)(F)F)c2)nc(-n2nc(C)cc2C)n1 [Compound B6, [2-(3,5-Dimethyl-pyrazol-1-yl)-6-methyl-pyrimidin-4-yl]-(3-trifluoromethyl-phenyl)-amine] |
| 135.1 to 137.5 | Cc1ccc(Nc2cc(C)nc(-n3nc(C)cc3C)n2)cc1 [Compound B1, [2-(3,5-Dimethyl-pyrazol-1-yl)-6-methyl-pyrimidin-4-yl]-p-tolyl-amine] |
| 135.3 to 137.8 | Cc1cc(Nc2ccc(Cl)c(Cl)c2)nc(-n2nc(C)cc2C)n1 [Compound B4, (3,4-Dichloro-phenyl)-[2-(3,5-dimethyl-pyrazol-1-yl)-6-methyl-pyrimidin-4-yl]-amine] |
| 52 to 55.6 | Cc1ccc(Nc2ccnc(-n3nc(C)cc3C)n2)cc1 [Compound B11, [2-(3,5-Dimethyl-pyrazol-1-yl)-pyrimidin-4-yl]-p-tolyl-amine] |
| 181 to 183.2 | Cc1cc(Nc2ccc(Cl)cc2)nc(-n2nc(C)cc2C)n1 [Compound B3, (4-Chloro-phenyl)-[2-(3,5-dimethyl-pyrazol-1-yl)-6-methyl-pyrimidin-4-yl]-amine] |

Target: T1, small-conductance Ca2+-activated K+ channel, subtype 3 (SK3) (Homo sapiens, UniProt Q9UGI6)
T1 construct: expressed in transfected cells; host or cells: HEK293
Test: Whole-cell patch-clamp recording of SK3 current in HEK293 cells
Assay type: cell-based
Conditions: hSK3 stably expressed in HEK293 cells, baseline current at −20 mV, free Ca2+ 300 nM, room temperature
Description: The ionic current through small-conductance Ca^2+-activated K^+ channels (SK channels, subtype 3) is recorded using the whole-cell configuration of the patch-clamp technique.
The small-conductance Ca^2+-activated K^+ channel, subtype 3 (SK3) was cloned from human skeletal muscle and stably expressed in HEK293 cells.
Human SK3 (hSK3) was sub-cloned into the expression vector pNS3n, a customized vector derived from pcDNA3 (InVitrogen) to give the plasmid construct pNS3_hSK3. HEK293 tissue culture cells were grown in DMEM (Dulbecco's Modified Eagle Medium) supplemented with 10% FCS (foetal calf serum) at 37° C. in 5% CO2. […]
Experiments are carried out on one of several patch-clamp set-ups. […] Data are stored directly on the hard-disk and analysed by IGOR software (Wavemetrics, Lake Oswega, Oreg., USA).
The whole-cell configuration of the patch-clamp technique is applied. […] Cell capacitance is electronically compensated and the resistance between the pipette and the cell interior (the series resistance, Rs) is measured and compensated for. […]
The intracellular (pipette) solution has the following composition (in mM): 105 KCl, 45 KOH, 10 EGTA, 1.21 MgCl2, 7.63 CaCl2, and 10 HEPES (pH=7.2 with HCl). The calculated free concentration of Ca^2+ in this solution is 300 nM and that of Mg^2+ is 1 mM. […]
Active compounds are quantified by calculating the change in baseline current at −20 mV. […]

| SC100 (Stimulating Concentration required for increasing the baseline current by 100%) [µM] | Structure (SMILES) |
| --- | --- |
| 0.1 | Cc1cc(NC2CCCCC2)nc(-n2nc(C)cc2C)n1 [Compound A2, Cyclohexyl-[2-(3,5-dimethyl-pyrazol-1-yl)-6-methyl-pyrimidin-4-yl]-amine] |
